# Patent publication US20240279232A1, “USE OF SUBSTITUTED 5-(4-METHYL-6-PHENYL-4H-BENZO[F]IMIDAZO[1,5-A][1,4] DIAZEPIN-3-YL)-1,2,4-O[…] THE TREATMENT OF INFLAMMATORY CONDITIONS” (priority 2021, published 2024)
# Read-outs that look alike come from different tables or passages of the source.
# Key:
# KOR (κ opioid receptor) = target: T1, KOR (κ opioid receptor) (Homo sapiens, UniProt P41145); experiment: KOR radioligand binding ([3H]-U69593, HEK293 cell homogenates); details: for inhibition at 10 µM: Percent inhibition at 10,000 nM
# T1 construct: expressed in transfected cells; host or cells: HEK293 (stably transfected)
# Description: (§1) Radioligand binding assays. Detailed protocols for the primary and secondary radioligand binding assays can be found in the National Institute of Mental Health's Psychoactive Drug Screening Program (NIMH PDSP) Assay Protocol Book (Roth, 2018). Briefly, primary and secondary radioligand binding assays are carried out in a final of volume of 125 μL per well in appropriate binding buffer. […] Total binding and nonspecific binding are determined in the absence and presence of 10 μM of appropriate reference compound (Naltrindole DOR, Salvinorin A KOR and DAMGO MOR). In brief, plates are usually incubated at room temperature and in the dark for 90 min. Reactions are stopped by vacuum filtration onto 0.3% polyethyleneimine (PEI) soaked 96-well filter mats using a 96-well Filtermate harvester, followed by three washes with cold PBS buffer. Scintillation cocktail is then melted onto the microwave-dried filters on a hot plate and radioactivity counted in a Microbeta counter. The data (n=6) were analyzed by nonlinear regression.
# (§2) Ligand affinities were determined for KOR (κ opioid receptor), DOR (δ opioid receptor), and MOR (μ opioid receptor) using radioligand binding assays at a screening concentration of 10,000 nM. For these assays, cell homogenates from HEK293 cells that overexpressed KOR, MOR, and DOR were used in combination with [^3H]-U69593, [^3H]-DAMGO, and [^3H]-DADLE, respectively Compounds that exceeded more than 50% radioligand displacement were investigated further in concentration-dependent experiments to determine Ki values. Gamma aminobutyric acid type A receptor (GABAAR) binding was determined with rat brain homogenate and ^3H-flunitrazepam. Flunitrazepam binds GABAAR subtypes that consists of two α and two β subunits and one γ or δ subunit. Strong affinities to α1-3,5,6β1-3γ1-y/δ GABAARS have been reported for flunitrazepam. The […] GABAAR subtype expression in the brain includes 43% α1β2γ2, 15% α2β3γ2+8% α2βγ1, 10% α3β3γ2, 6% α4βγ/δ, 4% α5β3γ2, and 4% α6β2γ2/δ. Therefore, compounds with high affinity toward the synaptic benzodiazepine-sensitive receptors (BZR) predominately bind α1-3β2-3γ1-2 GABAARs. Alternatively, compounds with weak BZR binding might be selective for α4-6βγ/δ GABAARs.
# (§3) Psychoactive Drug Screening Program. Detailed protocols for the primary and secondary radioligand binding assays can be found in the National Institute of Mental Health's Psychoactive Drug Screening Program (NIMH PDSP) Assay Protocol Book. Briefly, primary and secondary radioligand binding assays are carried out in a final of volume of 125 μL per well in appropriate binding buffer. The radioactive ligand concentration is close to the Kd. Total binding and nonspecific binding are determined in the absence and presence of 10 μM of appropriate reference compound, respectively. In brief, plates are usually incubated at room temperature and in the dark for 90 min. Reactions are stopped by vacuum filtration onto 0.3% polyethyleneimine (PEI) soaked 96-well filter mats using a 96-well Filtermate harvester, followed by three washes with cold PBS buffer. Scintillation cocktail is then melted onto the microwave-dried filters on a hot plate and radioactivity counted in a Microbeta counter. The data (n=6) were analyzed by nonlinear regression.
# MOR (μ opioid receptor) = target: T2, MOR (μ opioid receptor) (Homo sapiens, UniProt P35372); experiment: MOR radioligand binding ([3H]-DAMGO, HEK293 cell homogenates); details: Percent inhibition at 10,000 nM; [3H]-DAMGO
# T2 construct: expressed in transfected cells; host or cells: HEK293
# Description: as §1, §2, §3
# DOR (δ opioid receptor) = target: T3, DOR (δ opioid receptor) (Homo sapiens, UniProt P41143); experiment: DOR radioligand binding ([3H]-DADLE, HEK293 cell homogenates); details: Percent inhibition at 10,000 nM; [3H]-DADLE
# T3 construct: expressed in transfected cells; host or cells: HEK293
# Description: as §1, §2, §3
# [1] = system: BZR (benzodiazepine site of GABAAR); experiment: GABAAR/BZR binding, rat brain homogenate with 3H-flunitrazepam; details: rat brain homogenate, 3H-flunitrazepam; for BZR %: Percent inhibition at 10,000 nM
# Description: as §2, §3
# Mouse microglia [2] = experiment: NO production (Griess assay), LPS/IFNγ-activated mouse microglia; assay type: cell-based
# Description: (§4) Next, a library of GABAAR ligands was investigated to identify compounds that reduce the production of NO as a marker of anti-inflammatory activity. […] NO was quantified with a Greiss assay. Cell viability was determined with CellTiter-Glo.
# Cell culture. A) HMC3 Microglia (CRL-3304) were maintained in treated cell culture flasks (Nunc, 156472) with EMEM (Corning, 10010CV) supplemented with 10% heat-inactivated FBS (Corning, 35011CV) and 100 U/mL penicillin and 100 μg/mL streptomycin (Hyclone, SV30010). Cultures were maintained at 37° C. and 5% CO2. When cells reached a density of 7×10^4 cells/mL, cultures were passaged with 0.25% Trypsin (Corning, 25-053-CI) and resuspended to a density no lower than 10,000 cells/mL. B) Human and mouse microglia cell lines were a gift from Dr. David Alvarez-Carbonell at Case Western Reserve University (Cleveland, OH). Microglia were cultured in cell culture treated flasks (Nunc, 156472) with DME/F12 media (Hyclone, SH30023.01) supplemented with 10% heat-inactivated FBS (Corning, 35011CV), 100 U/mL penicillin/100 μg/mL streptomycin (Hyclone, SV30010), and Normocin (Invivogen, ant-nr). Cultures were maintained at 37° C. and 5% CO2. […] Cultures were maintained at 37° C. and 5% CO2. Cells were passaged when they reached a density of approximately 3×10^6 cells/mL using cell scrapers (VWR, 10062-906) to lift cells from flask surface and resuspended at densities of approximately 500,000 cells/mL.
# (§5) Nitric oxide production (Griess assay) and viability assay (CellTiter-Glo). 80 μL of mouse microglia culture (1×10^6 cells/mL) was plated into sterile 384 well plates representing non-activated wells. The remaining culture was activated with 50 ng/ml LPS (Invivogen, NC9836) and 150 U/mL IFNγ (R&D Systems, 485MI100) and distributed into the 384 well plates. […] Assay plates were incubated for approximately 24 hours (unless otherwise noted) at 37° C., centrifuged, and 40 μL of supernatant transferred to a new plate for analysis using the Griess Assay (Promega, Madison, WI). Absorbance at 530 nm was measured using a TECAN Infinite M1000 plate reader. The remaining 40 μL containing cells was analyzed for toxicity by the CellTiter-Glo Assay (Promega, Madison, WI). Luminescence was read using a TECAN Infinite M1000 plate reader.
# Mouse microglia [3] = experiment: Cell viability (CellTiter-Glo), mouse microglia; assay type: cell-based; details: CellTiter-Glo
# Description: as §4, §5
# [4] = concentration-dependent, [3H]-U69593, read-out: KOR (Ki)
# T2 sequence (P35372 whole entry, species assumed): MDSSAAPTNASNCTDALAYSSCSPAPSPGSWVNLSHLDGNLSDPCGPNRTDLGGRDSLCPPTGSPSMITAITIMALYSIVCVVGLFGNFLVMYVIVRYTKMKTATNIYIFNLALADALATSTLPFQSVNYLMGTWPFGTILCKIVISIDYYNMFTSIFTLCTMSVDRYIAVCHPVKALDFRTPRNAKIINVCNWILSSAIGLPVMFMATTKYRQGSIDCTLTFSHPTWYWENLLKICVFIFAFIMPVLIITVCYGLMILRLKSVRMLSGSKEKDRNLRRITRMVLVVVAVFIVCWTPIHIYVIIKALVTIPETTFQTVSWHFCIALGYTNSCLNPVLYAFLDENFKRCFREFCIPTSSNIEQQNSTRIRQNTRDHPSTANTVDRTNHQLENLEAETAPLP
# T3 sequence (P41143 whole entry): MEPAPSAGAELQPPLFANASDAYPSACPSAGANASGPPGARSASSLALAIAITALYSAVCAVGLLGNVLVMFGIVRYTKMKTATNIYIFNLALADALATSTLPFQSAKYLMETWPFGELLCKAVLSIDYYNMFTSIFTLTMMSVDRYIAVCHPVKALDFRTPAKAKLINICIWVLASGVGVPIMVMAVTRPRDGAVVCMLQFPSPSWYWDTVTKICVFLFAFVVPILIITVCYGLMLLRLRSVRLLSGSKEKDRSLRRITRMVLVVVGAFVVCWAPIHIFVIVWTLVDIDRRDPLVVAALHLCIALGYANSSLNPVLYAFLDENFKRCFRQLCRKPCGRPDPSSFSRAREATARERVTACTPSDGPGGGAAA
# T1 sequence (P41145 whole entry): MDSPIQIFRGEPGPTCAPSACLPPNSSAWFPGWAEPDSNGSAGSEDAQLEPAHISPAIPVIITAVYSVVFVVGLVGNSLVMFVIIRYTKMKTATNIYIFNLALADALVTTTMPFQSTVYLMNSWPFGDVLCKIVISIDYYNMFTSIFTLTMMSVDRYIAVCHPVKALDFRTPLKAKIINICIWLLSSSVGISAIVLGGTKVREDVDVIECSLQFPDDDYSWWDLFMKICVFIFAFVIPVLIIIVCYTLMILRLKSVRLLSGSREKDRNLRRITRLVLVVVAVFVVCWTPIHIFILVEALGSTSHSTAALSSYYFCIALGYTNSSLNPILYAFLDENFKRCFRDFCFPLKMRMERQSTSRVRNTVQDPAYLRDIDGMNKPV
SMILES,Ki (KOR (κ opioid receptor)),inhibition at 10 µM (KOR (κ opioid receptor); [3H]-U69593),inhibition at 10 µM (MOR (μ opioid receptor)),inhibition at 10 µM (DOR (δ opioid receptor)),BZR % [1],Ki [1],"inhibition at 50 µM (Mouse microglia [2]; Mus musculus, Microglia, 24 h)",Cell viability (%) Mouse microglia 50 μM (Mouse microglia [3]),"inhibition at 10 µM (Mouse microglia [2]; Mus musculus, Microglia, 24 h)",Ki (KOR (κ opioid receptor); [4]),"Inhibition of NO production (%) Mouse microglia 50 μM (Mouse microglia [2]; 50 μM, 24 hours, 1 μM GABA, LPS/IFNγ)",cell viability / cytotoxicity in the NO competition experiments (in words) (Mouse microglia [3]; activated microglia)
"C#Cc1ccc2c(c1)C(c1ccccc1F)=N[C@@H](C)c1c(-c3nc(C)no3)ncn1-2 [GL-I-65, (S)-5-(8-Ethynyl-6-(2-fluorophenyl)-4-methyl-4H-benzo[f]imidazo[1,5-a][1,4]diazepin-3-yl)-3-methyl-1,2,4-oxadiazole]",222 nM,88%,2%,7%,79%,1150 nM,19 ± 9%,100 ± 12%,–,–,–,–
"C#Cc1ccc2c(c1)C(c1ccccc1F)=N[C@@H](C)c1c(-c3nc(CC)no3)ncn1-2 [GL-I-66, (S)-3-Ethyl-5-(8-ethynyl-6-(2-fluorophenyl)-4-methyl-4H-benzo[f]imidazo[1,5-a][1,4]diazepin-3-yl)-1,2,4-oxadiazole]",212 nM,92%,28%,2%,80%,654 nM,86 ± 11%,71 ± 9%,5 ± 2%,–,–,–
C#Cc1ccc2c(c1)C(c1ccccc1F)=NCc1c(-c3cnco3)ncn1-2 [KRM-II-18B],–,89%,11%,20%,97%,38 nM,0%,100 ± 3%,–,361 nM,–,–
C#Cc1ccc2c(c1)C(c1ccccc1)=NCc1c(-c3cnco3)ncn1-2 [KRM-II-82],–,78%,5%,20%,95%,96 nM,0%,100 ± 6%,–,1200 nM,–,–
C#Cc1ccc2c(c1)C(c1ccccn1)=NCc1c(-c3nc(CC)no3)ncn1-2 [MP-III-080],–,47%,0%,0%,88%,303 nM,0%,100 ± 14%,–,–,–,–
C#Cc1ccc2c(c1)C(c1ccccc1F)=N[C@H](C)c1c(C(=O)OCC)ncn1-2 [SH-053-2′F-R-CH3],–,89%,28%,32%,85%,379 nM,–,–,–,240 nM,–,–
C#Cc1ccc2c(c1)C(c1ccccc1F)=N[C@@H](C)c1c(C(=O)OCC)ncn1-2 [SH-053-2′F-S-CH3],–,93%,7%,36%,92%,111 nM,–,–,–,90 nM,–,–
C#Cc1ccc2c(c1)C(c1ccccc1F)=N[C@@H](C)c1c(C(=O)O)ncn1-2 [SH-053-2′P-S-CH3 Acid],–,20%,0%,18%,93%,29 nM,–,–,–,–,–,–
CCOC(=O)c1ncn2c1[C@@H](C)N=C(c1ccccc1F)c1cc(Br)ccc1-2 [SH-I-047],86 nM,82%,16%,0%,84%,238 nM,–,–,–,–,–,–
CCOC(=O)c1ncn2c1[C@H](C)N=C(c1ccccc1F)c1cc(Br)ccc1-2 [SH-I-048B],63 nM,95%,0%,0%,61%,96 nM,–,–,–,–,–,–
Fc1ccccc1C1=NCc2c(-c3cnco3)ncn2-c2ccc(Br)cc21 [SH-I-85],–,91%,16%,33%,99%,11 nM,–,–,–,162 nM,–,–
C#Cc1ccc2c(c1)C(c1ccccn1)=NCc1c(C(=O)O)ncn1-2 [SR-II-54],–,9%,8%,1%,80%,69 nM,–,–,–,–,–,–
C#Cc1ccc2c(c1)C(c1ccccc1F)=NCc1c(C(=O)OCCCOC(=O)c3ncn4c3CN=C(c3ccccc3F)c3cc(C#C)ccc3-4)ncn1-2 [YT-III-271],–,–,–,–,–,–,–,100 ± 3%,–,–,0 ± 4%,–
"C[C@@H]1C[C@H]2[C@@H]3CCC4=CC(=O)C=C[C@]4(C)[C@@]3(F)[C@@H](O)C[C@]2(C)[C@@]1(O)C(=O)CO [dexamethasone, reference compound]",–,–,–,–,–,–,–,–,–,–,–,without cell toxicity
